“Also recorded” adds a separate entry of the source.
Key:
[1] = system: ApoE-deficient mice; assay: In vivo aortic calcification imaging, 18F-NaF μPET / μCT; set-up: species or system mouse; conditions: ApoE-deficient mice on HFD, 30 mg/kg/day in food from 10 to 25 weeks of age; control 6 out of 11
Text: Four cohorts of mice were used in these studies (FIGS. 8A and 9A). Cohorts 1 and 2 were devoted to the in vivo and ex vivo characterization of TNAP-associated plaque calcification. 6-week-old ApoE-deficient male mice were received at the animal facility and placed in conventional cages with 5 mice per cage. Mice were maintained on a 12-hrs light-dark cycle (7:00 am-7:00 pm) and were supplied with food and water ad libitum. From 10 weeks of age, they were fed ad libitum with a high fat diet (HFD, D12108C, Research Diets, New Brunswick, USA) containing 40% fat (kcal) and 1.25% cholesterol (weight). In cohort 1, 8 mice were sacrificed every 2 weeks between weeks 17 to 31, for histological and molecular analyses. Total body weight was measured weekly after starting the HFD. The sacrifice was done after anesthesia with isoflurane and intracardiac blood puncture by CO2 inhalation. Tissues were harvested as described below. The abdominal aorta was used for quantitative polymerase chain reaction (PCR) analyses. […] Plaque calcification was analyzed at 25 weeks, and possible side effects of TNAP inhibition were explored in mice aged 31 weeks. […]
Mice were placed into a chamber connected to an isoflurane anesthesia unit. […] Images were analyzed using Inveon Research workplace (Siemens). The presence of atherosclerotic plaques was evaluated both in CT and PET images. […]

[2] = system: ApoE-deficient mice; assay: Plaque histology: osteosense staining of calcifications, oil red O staining; assay type: in vivo, mouse; conditions: ApoE-deficient mice on HFD, 30 mg/kg/day from 10 to 25 weeks
Text: Four cohorts of mice were used in these studies (FIGS. 8A and 9A). Cohorts 1 and 2 were devoted to the in vivo and ex vivo characterization of TNAP-associated plaque calcification. 6-week-old ApoE-deficient male mice were received at the animal facility and placed in conventional cages with 5 mice per cage. Mice were maintained on a 12-hrs light-dark cycle (7:00 am-7:00 pm) and were supplied with food and water ad libitum. From 10 weeks of age, they were fed ad libitum with a high fat diet (HFD, D12108C, Research Diets, New Brunswick, USA) containing 40% fat (kcal) and 1.25% cholesterol (weight). In cohort 1, 8 mice were sacrificed every 2 weeks between weeks 17 to 31, for histological and molecular analyses. Total body weight was measured weekly after starting the HFD. The sacrifice was done after anesthesia with isoflurane and intracardiac blood puncture by CO2 inhalation. Tissues were harvested as described below. The abdominal aorta was used for quantitative polymerase chain reaction (PCR) analyses. Mice from cohort 2 were used to analyze aorta calcification with ^18F—NaF μPET and μCT and to compare the in vivo data with the ex vivo results obtained in cohort 1. Animals were transferred from the animal facility to the Cermep imaging platform. Cohorts 3 and 4 were used to determine in vivo and ex vivo the impact of TNAP inhibition on the vasculature, liver, bones, and kidneys. According to the results obtained in cohorts 1 and 2, TNAP inhibitor SBI-425 (30 mg/kg/day, formulated as a food admixture in the HFD) was administered in a preventive manner from 10 weeks of age. Treatment was stopped at 25 weeks or 31 weeks of age. Plaque calcification was analyzed at 25 weeks, and possible side effects of TNAP inhibition were explored in mice aged 31 weeks. Mice in cohort 3 (2 groups of 13 mice) were used for ex vivo analysis, and mice in cohort 4 (2 groups of 12 mice) for in vivo imaging and ex vivo analyses.
After euthanasia, the heart and vasculature were perfused with sterile NaCl 0.9%. The aortic root and the aortic arch, with the major arteries that stem from them (brachiocephalic, left common carotid and left subclavian), were dissected and frozen in optimal cutting temperature medium (OCT, Thermo Scientific) and stored at −80° C. before serial cryo-sectioning. The aortic root, aortic arch and carotid were dissected under a microscope, frozen in optimal cutting medium (OCT, Thermo Scientific) and stored at −80° C. before serial cryo-sectioning. […] Calcification was imaged by near infrared fluorescence (NIRF) with the calcium tracer osteosense (OS) (PerkinElmer, ex/em 650/680 nm). […] Quantification was performed by computer image analysis using Image J software (NIH, Bethesda, Md.) by averaging of measurements from 2 sections of 15 μm apart using ImageJ software. […]

[3] = system: ApoE-deficient mice; assay: Tolerability: mortality and body weight; assay type: in vivo, mouse; conditions: 30 mg/kg/day, treatment up to 21 weeks
Text: Four cohorts of mice were used in these studies (FIGS. 8A and 9A). Cohorts 1 and 2 were devoted to the in vivo and ex vivo characterization of TNAP-associated plaque calcification. 6-week-old ApoE-deficient male mice were received at the animal facility and placed in conventional cages with 5 mice per cage. Mice were maintained on a 12-hrs light-dark cycle (7:00 am-7:00 pm) and were supplied with food and water ad libitum. From 10 weeks of age, they were fed ad libitum with a high fat diet (HFD, D12108C, Research Diets, New Brunswick, USA) containing 40% fat (kcal) and 1.25% cholesterol (weight). In cohort 1, 8 mice were sacrificed every 2 weeks between weeks 17 to 31, for histological and molecular analyses. Total body weight was measured weekly after starting the HFD. The sacrifice was done after anesthesia with isoflurane and intracardiac blood puncture by CO2 inhalation. Tissues were harvested as described below. The abdominal aorta was used for quantitative polymerase chain reaction (PCR) analyses. Mice from cohort 2 were used to analyze aorta calcification with ^18F—NaF μPET and μCT and to compare the in vivo data with the ex vivo results obtained in cohort 1. Animals were transferred from the animal facility to the Cermep imaging platform. […] Plaque calcification was analyzed at 25 weeks, and possible side effects of TNAP inhibition were explored in mice aged 31 weeks. […]

[4] = system: ApoE-deficient mice; assay: Quantitative PCR of transcript levels in the liver; assay type: in vivo, mouse; conditions: 30 mg/kg/day, 25 weeks, vs control

COc1ccc(Cl)cc1S(=O)(=O)Nc1cncc(C(N)=O)c1 [SBI-425]
mice having calcifications, in vivo 18F-NaF μPET and μCT [1]: 0 out of 12
mice that formed calcifications, by histology ([2]; OS staining, control 13 out of 13): 9 out of 13
number of calcifications per mice ([2]; OS staining, vs control): lower
plaque lipids (lipid surface) ([2]; oil red O, vs control): less lipids
plaque size (plaque surface) ([2]; oil red O, vs control, 30 mg/kg/day): smaller; also recorded: reduced
body weight [3]: no effect; also recorded: did not significantly change
mortality [3]: no effect
Abcg8 transcript level, liver [4]: did not change
Cyp7a1 transcript level, liver [4]: did not change
Cyp7b1 transcript level, liver [4]: did not change
Fas transcript level (fatty acid synthesis), liver [4]: nor were the levels of transcripts associated with fatty acid synthesis (Srebp1c, Fas) (FIGS. 6B-6G) changed
Hmgcr transcript level, liver [4]: did not change
Hp transcript level (liver inflammation) [4]: unchanged
Il1b transcript level (liver inflammation) [4]: unchanged
Ly6g transcript level (liver inflammation) [4]: unchanged
Scarb1 transcript level, liver [4]: did not change
Srebp1c transcript level (fatty acid synthesis), liver [4]: nor were the levels of transcripts associated with fatty acid synthesis (Srebp1c, Fas) (FIGS. 6B-6G) changed
Tnfa transcript level (liver inflammation) [4]: unchanged
